Results published in the NIST ThermoML archive (doi:10.1016/j.fluid.2014.11.009).

Assays:
[1] = 101 kPa, Liquid; for viscosity: Cone and plate viscometry; for mass density: Vibrating tube method
[2] = xn = mol fraction of the nth substance listed; conditions: 101 kPa, Liquid; for mass density: Vibrating tube method; for viscosity: Cone and plate viscometry

CN(CCO)CCO [N-methyldiethanolamine]
[1]
Conditions	mass density [kg/m3]	viscosity [mPa·s]
303.2 K	–	56.3
313.2 K	1026.7	34.44
323.2 K	1018.9	22.93

CN(CCO)CCO [N-methyldiethanolamine] + O
[2]
Conditions	mass density, x1 = 0.0192 [kg/m3]	mass density, x1 = 0.1168 [kg/m3]	viscosity, x1 = 0.0192 [mPa·s]	viscosity, x1 = 0.1168 [mPa·s]
293.2 K	1011.8	1043.3	–	–
298.2 K	1008.9	1040.4	–	–
303.2 K	1005.8	1037.3	1.568	6.671
313.2 K	999.7	1030.8	1.178	4.706
323.2 K	993.1	1024.1	0.796	3.057
333.2 K	983.8	1016.9	0.688	2.193
343.2 K	977.9	1009.4	–	1.589
353.2 K	970.1	1001.7	–	1.194
363.2 K	962	993.5	–	–

NC(N)=[NH2+].O=S(=O)([O-])C(F)(F)F [guanidinium trifluoromethanesulfonate] + O
[2]
Conditions	mass density, x1 = 0.0202 [kg/m3]	mass density, x1 = 0.2073 [kg/m3]	viscosity, x1 = 0.0018 [mPa·s]	viscosity, x1 = 0.0056 [mPa·s]	viscosity, x1 = 0.0095 [mPa·s]	viscosity, x1 = 0.0137 [mPa·s]	viscosity, x1 = 0.0181 [mPa·s]	viscosity, x1 = 0.0202 [mPa·s]	viscosity, x1 = 0.2073 [mPa·s]
293.2 K	1087.8	1125	–	–	–	–	–	–	–
298.2 K	1084	1120.3	–	–	–	–	–	–	–
303.2 K	1080.8	1116.9	0.7366	0.7996	0.8208	0.8616	0.9134	0.9855	1.361
313.2 K	1073.9	1110.6	0.6512	0.6757	0.6976	0.7326	0.8268	0.8374	1.098
323.2 K	1067.4	1103.8	0.6047	0.6289	0.6517	0.6872	0.7268	0.7438	0.9221
333.2 K	1059.3	1097.5	0.5555	0.5686	0.5834	0.6095	0.6302	0.6544	0.67
343.2 K	1050.9	1088.8	–	–	–	–	–	–	–
353.2 K	1043.2	1080	–	–	–	–	–	–	–
363.2 K	1035	1072.1	–	–	–	–	–	–	–
